Patent US20080161294A1, “Urea derivative, medicinal composition containing the same, and medicinal use of these” (priority 2005, published 2008)

Columns and labels:
[1] = tested on: anesthetized rats infused with hypotonic solution; assay: Antidiuretic effect on diuresis induced by hypotonic solution in anesthetized rats; format: in vivo, rat; details: 10 μg/kg intravenously; for Antidiuretic effect (decreasing rate of urine volume): anesthetized male SD rats, against pre value; for Duration tine: period until decreasing rate of urine volume restored to −20%
Description: The Study of Antidiuretic Effect
The Confirmation Study of Antidiuretic Effect on the Diuretic Activity Induced by Loading Hypotonic Solution in the Anesthetized Rats Infused with Hypotonic Solution
It has been reported that plasma AVP level was decreased with intravenous infusion of hypotonic solution (J. Endocrinol., Vol. 141, pp. 59-67, 1994). The antidiuretic effect of the test compounds in the rats induced a diuretic condition was determined by the method as reported by Angchanpen et al (Br. J. Pharmacol., Vol. 93, pp. 151-155, 1988). The test compounds were dissolved in dimethylsulfoxide at 10 mM, and used in the study. Male SD rats (200-400 g weight) were anesthetized with 100 mg/kg of Inactin (SIGMA) intraperitonealy and each cannula was inserted into trachea, jugular vein, bladder and femoral vein, respectively. The hypotonic solution (0.3% NaCl, 0.83% glucose) was infused via femoral vein at 9 mL/hour. The urine volume obtained via cannula inserted into bladder was measured every 10 minutes. After steady-state of urine volume for three 10 minutes periods, test compounds prepared as mentioned above were administered intravenously at 10 μg/kg via cannula inserted into jugular vein. Dimethylsulfoxide/saline (0.3%) was used as a vehicle. The average of urine volume measured for three 10 minutes periods before the administration was defined as the pre value (0%). After the administration of the test compounds, the urine volume was measured every 10 minutes. The antidiuretic effect, namely the decrease of the urine volume, induced by administration of test compounds was calculated from the decreasing rate of urine volume (minus %) against the pre value. Because maximum decreasing rate of the urine volume after administration of vehicle was −20% in this study, the period that decreasing rate of urine volume restored to −20% after administration of the test compounds was considered as indication of duration time of the test compounds.

human V2 receptor [2] = target: T1, human V2 receptor (Homo sapiens, UniProt P30518); assay: Binding experiment for human V2 receptor ([3H]-AVP displacement, CHO cell membranes); set-up: purchased Packard BioScience; host or cells: CHO cell membranes; details: inhibition of [3H]-AVP binding, CHO cell membranes expressing human V2 receptor; Ki calculated from IC50 and Kd; read-out: Affinity to human V2 receptor Ki
T1 sequence (P30518 whole entry): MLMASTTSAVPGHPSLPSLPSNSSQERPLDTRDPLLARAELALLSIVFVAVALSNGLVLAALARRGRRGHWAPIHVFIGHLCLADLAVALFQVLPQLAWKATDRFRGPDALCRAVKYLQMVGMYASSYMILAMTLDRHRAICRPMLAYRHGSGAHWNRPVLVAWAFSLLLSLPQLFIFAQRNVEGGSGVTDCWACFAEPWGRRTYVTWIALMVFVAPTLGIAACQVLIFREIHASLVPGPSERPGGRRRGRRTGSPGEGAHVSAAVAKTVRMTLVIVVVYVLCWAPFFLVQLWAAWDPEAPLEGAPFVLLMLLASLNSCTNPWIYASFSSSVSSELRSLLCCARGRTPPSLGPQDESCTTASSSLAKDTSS
Description: Binding Experiment for Human V2 Receptor
Test compounds were dissolved in dimethylsulfoxide at 10 mM. The affinities for human V2 receptor were determined by an inhibition against [^3H]-Arginie vasopressin (AVP) (Perkin elmer Japan) binding to the human V2 receptor using CHO cell membranes expressed human V2 receptor (Packard BioScience). Cell membranes suspension was prepared by suspending the cell membranes as mentioned above with Assay buffer (50 mM Tris-HCl, 10 mM MgCl2, 0.1% bovine serum albumin (BSA), pH7.4) at an adequate protein concentration. The test compound solutions were prepared by diluting the dimethylsulfoxide solution of the test compound as mentioned above with Assay buffer at final concentration of 10 nM, 100 nM, 1 μM and 10 μM (in this diluting procedure, concentration of dimethylsulfoxide was adjusted to be 0.5% at each concentration of the test compound). Cell membranes suspension (50 μL), 3 nM of [^3H]-AVP (50 μL), Assay buffer (50 μL) and the solution of the test compounds at each concentrations (50 μL) were added to MultiScreen 96-well plate (Millipore) and the mixture was incubated for an hour at 25° C. with shaking slightly. After filtration by aspiration, the plate was washed with ice-cold washing buffer (50 mM Tris-HCl, 10 mM MgCl2, pH 7.4) for three times. After dry the plate, Microscinti-20 (Packard) was added to each well and the plate was shaken slightly, and then radioactivities of each well were counted with a micro plate scintillation counter, TopCount (Packard). Non-specific binding of [^3H]-AVP for cell membranes was determined by adding 1 μM of cold AVP substituted for the test compounds. The concentration of the test compounds inhibiting the specific binding of [^3H]-AVP by 50% was considered as IC50 value.
The Calculation of Kd Value of [^3H]-AVP for the Cell Membranes Expressed Human V2 Receptor
The suspension of the cell membranes expressed human V2 receptor was prepared with diluting adequately with the Assay buffer as mentioned above. In consideration for the radioactivity of [^3H]-AVP, six different concentrations (final concentration; ranging from approximately 100 pM to 6000 pM) of [^3H]-AVP were prepared by serial dilution by from 2 to 3 fold with the Assay buffer. The cell membranes suspension (50 μL), each concentrations of [^3H]-AVP (50 μL), the Assay buffer (50 μL) and 1 μM of cold AVP or the Assay buffer (50 μL) were added to MultiScreen 96-well plate (Millipore) and the mixture was incubated for an hour at 25° C. with shaking slightly. The specific bindings (B value) of each concentrations of the [^3H]-AVP were determined by the method as mentioned above and free-bound contents (F value) at each concentrations of the [^3H]-AVP were determined. The Kd value was calculated by Scatchard analysis using the B value and the F value.

human V2 receptor [3] = target: T1, human V2 receptor; assay: Study to confirm the agonism of human V2 receptor (intracellular Ca2+, HEK293 cells coexpressing human V2 receptor and Gqs chimeric protein); format: cell-based; set-up: expressed in transfected cells; host or cells: HEK293 cells (American Type Culture Collection), transient transfection with pCI-neo/hV2 and pLEC-Gqs5; details: for EC50: intracellular Ca2+ response, HEK293 cells coexpressing human V2 receptor and Gqs; for I A (intrinsic activity): maximum response relative to AVP = 1.00
Description: The Study to Confirm the Agonism of Human V2 Receptor
The experiment to confirm the response of the test compounds to human V2 receptor was carried out using the cells prepared as described below in order to use this confirmation study to see the agonism of human V2 receptor of the test compounds.
The test compounds were dissolved in dimethylsulfoxide at 10 mM and solutions of the test compounds were prepared by 10-fold serial dilution with the Assay buffer (0.1% BSA, 20 mM HEPES/Hank's balanced salt solution, pH 7.4) at the concentration of 0.1 nM to 10 μM, which were used in this study.
Human V2 receptor couples with Gs protein, one of the G-coupling protein, and consequently produces cyclic adenosine 3′, 5′-monophosphate (cAMP) via adenylate cyclase. This cAMP produce can be substituted to intracellular increase of Ca^2+ with coexpressing Gqs, a chimeric protein, and human V2 receptor (Mol. Pharmacol., Vol. 50, pp. 885-890, 1996). The responses of the test compounds for human V2 receptor were quantified by measuring this intracellular Ca^2+. The changes of intracellular Ca^2+ after adding the test compounds at each concentration as mentioned above (0.1 nM to 10 μM) were measured with a FlexStation (Molecular Devices) using a FLIPR CALCIUM ASSAY KIT (Molecular Devices).
The intrinsic activities (IA) of the test compounds were calculated from the maximum response of the test compounds as that of AVP was considered to be 1.00. In case of a full agonist, the EC50 values of the test compounds were calculated as the maximum response of AVP was considered to be 100% and in the case of a partial agonist, EC50 values of test compounds were calculated as the maximum response of own test compounds were considered to be 100%. The concentration that achieved to 50% response of the maximum response in a concentration-response curve was considered as EC50 value. The values of EC50 obtained in this study were shown in Table 84 described below as indications of the agonism of human V2 receptor.
The Preparation of the Cells Using Confirmation Study of an Agonism of Human V2 Receptor (HEK293 Cells Coexpressed Human V2 Teceptor and Gqs Chimeric Protein)
HEK293 cells (American Type Culture Collection) were incubated in the Eagle's Minimum Essential Medium (EMEM, Invitrogen) containing 1 mM sodium pyruvate, nonessential amino acids (0.1 mM), streptomycin (100 μg/mL), penicillin (100 U/mL), 10% fetal calf serum (Sanko chemicals) in an incubator with 5% CO2 at 37° C. The transfection was carried out by adding pCI-neo hV2 expression vector, expression vector inserted with the sequence coding Gqs chimeric protein (pLEC-Gqs5, LiveWare, Molecular Devices) and Lipofectamine2000 (Invitrogen), all diluted with OPTI-MEM I Reduced Serum Medium I (Invitrogen), to the cell suspension which was prepared from the confluent cells suspended with EMEM as mentioned above without antibiotics at 1×10^6 cells/mL. After the transfection, the cells (HEK293 cells coexpressed human V2 receptor and Gqs chimeric protein) were incubated in an incubator with 5% CO2 for two days and were used as cells for confirming agonism of human V2 receptor, and used for assessment of the test compounds. The expression plasmid vector of human V2 receptor represented as pCI-neo/hV2 above was constructed by the method as described below.

Male SD rats = assay: Acute toxicity test; format: in vivo; details: 10 mg/kg intravenously, N=2, one hour experimental period, urethane anesthesia
Description: Male SD rats (250-300 g weight) were divided into some groups (N=2) and each cannula was inserted into trachea and jugular vein under anesthesia with urethane (1.5 g/kg, subcutaneously). The test compound solutions were prepared with an adequate solvent to be a dosage of 10 mg/kg, and then the solution was administered intravenously via cannula. The survival rate was determined for an hour experimental period.

| Ki (human V2 receptor [2]) | EC50 (human V2 receptor [3]) | I A (intrinsic activity) (human V2 receptor [3]) | SMILES | Antidiuretic effect (decreasing rate of urine volume) [1] | Duration tine [1] | Dead (Male SD rats) |
| --- | --- | --- | --- | --- | --- | --- |
| 0.0197 µM | 0.0094 µM | 0.59 | C[C@@H]1CN(C(=O)c2ccc(-n3cccn3)cc2Cl)c2ccccc2CN1C(=O)NCC(=O)O [Example 3-1, {[(R)-1-(2-Chloro-4-pyrazol-1-ylbenzoyl)-3-methyl-1,2,3,5-tetrahydrobenzo[e]-1,4-diazepin-4-carbonyl]amino}acetic acid] | −88.7% | 60 min | – |
| – | 0.0154 µM | 0.93 | C[C@@H]1CN(C(=O)c2ccc(OCCO)cc2Cl)c2ccccc2CN1C(=O)NCC(=O)O [Example 3-6] | – | – | – |
| 0.0619 µM | 0.016 µM | 0.75 | C[C@@H]1CN(C(=O)c2ccc(-n3cccn3)cc2Cl)c2ccccc2CN1C(=O)NCCO [Example 4, N-(2-Hydroxyethyl)-(R)-1-(2-chloro-4-pyrazol-1-ylbenzoyl)-3-methyl-1,2,3,5-tetrahydrobenzo[e]-1,4-diazepin-4-carboxamide] | – | – | – |
| 0.014 µM | 0.0091 µM | 0.48 | CNC(=O)CNC(=O)N1Cc2ccccc2N(C(=O)c2ccc(-n3cccn3)cc2Cl)C[C@H]1C [Example 5-3] | – | – | – |
| – | 0.0173 µM | 0.92 | C[C@@H]1CN(C(=O)c2ccc(-n3cccn3)cc2Cl)c2ccccc2CN1C(=O)NCC(=O)N1CCCCC1 [Example 5-6] | – | – | – |
| – | 0.0086 µM | 0.75 | C[C@@H]1CN(C(=O)c2ccc(-n3cccn3)cc2C(F)(F)F)c2ccccc2CN1C(=O)NCC(N)=O [Example 5-11] | – | – | – |
| – | 0.0065 µM | 0.79 | Cc1cc(-n2cccn2)ccc1C(=O)N1C[C@@H](C)N(C(=O)NCC(N)=O)Cc2ccccc21 [Example 5-12] | – | – | – |
| – | 0.0091 µM | 0.71 | C[C@@H]1CN(C(=O)c2ccc(-n3cccn3)cc2F)c2ccccc2CN1C(=O)NCC(N)=O [Example 5-15] | – | – | – |
| 0.0278 µM | 0.0022 µM | 0.89 | C[C@@H]1CN(C(=O)c2ccc(N3CCCC3)cc2Cl)c2ccccc2CN1C(=O)NCC(N)=O [Example 5-18] | – | – | – |
| – | 0.0156 µM | 0.57 | C[C@@H]1CN(C(=O)c2ccc(-n3cccn3)cc2Cl)c2ccc(F)cc2CN1C(=O)NCC(N)=O [Example 5-19] | – | – | – |

| SMILES | Ki (human V2 receptor [2]) | EC50 (human V2 receptor [3]) | I A (intrinsic activity) (human V2 receptor [3]) | Antidiuretic effect (decreasing rate of urine volume) [1] | Duration tine [1] | Dead (Male SD rats) |
| --- | --- | --- | --- | --- | --- | --- |
| C[C@@H]1CN(C(=O)c2ccc(-n3cccn3)cc2Cl)c2ccccc2CN1C(=O)NCC(N)=O [Example 5-2] | 0.0355 µM | 0.0073 µM | 0.71 | −83.9% | 50 min | 0/2 |
| C[C@@H]1CN(C(=O)c2ccc(-n3cccn3)cc2Cl)c2ccccc2CN1C(=O)NCC(=O)N(C)C [Example 5-4] | – | 0.0276 µM | 0.49 | −90.4% | 80 min | 0/2 |
| C[C@@H]1CN(C(=O)c2ccc(-n3cccn3)cc2Cl)c2ccccc2CN1C(=O)NCC(=O)N1CCCC1 [Example 5-5] | – | 0.0249 µM | 0.83 | −89.4% | 90 min | 0/2 |
